Reference: ChEMBL document CHEMBL5042493, “Enhancing monoamine oxidase B inhibitory activity via chiral fluorination: Structure-activity relationship, biological evaluation, and molecular docking study” (Eur J Med Chem, 2022)
Activity calls are given as the source filed them. The calls are words filed in the database; no cut-off is given here.

Assays:
[1] = Cmax in Cynomolgus monkey at 1 mg/kg, iv measured upto 24 hrs; assay type: ADME, organism-based, Macaca fascicularis; set-up: route intravenous, dose 1 mg/kg, time <=24; conditions: in vivo
Mus musculus [2] = assay: Neuroprotective activity against MPTP-induced C57BL/6 mouse model of Parkinson's disease assessed as increase in DA level in striatum at 0.625 to 2.5 mg/kg, ip pretreated for 15 mins followed by MPTP challenge and measured after 8 days post MPTP challenge by HPLC electrochemical detection method; assay type: functional, organism-based; conditions: dose 0.625-2.5 mg/kg, time 8.0 day
[3] = Apparent permeability in MDCK-MDR1 cells from basal to apical side at 10 uM; assay type: ADME, cell-based, Canis lupus familiaris; conditions: dog
[4] = Volume of distribution at steady state in Sprague dawley rat at 1 mg/kg, iv measured upto 24 hrs; assay type: ADME, organism-based; conditions: in vivo, read-out: Vdss
Cytochrome P450 2C19 = Cytochrome P450 2C19 (Homo sapiens, UniProt P33261); assay: Inhibition of human CYP2C19 preincubated for 10 min followed by addition of NADPH and measured after 45 min by LC-MS/MS analysis; assay type: ADME
Mus musculus [5] = assay: Neuroprotective activity against MPTP-induced C57BL/6 mouse model of Parkinson's disease assessed as increase in DA level in striatum at 1.25 to 5 mg/kg, ip pretreated with MPTP for 4 hrs followed by incubation with compound for five times at 24 hrs interval and measured after 30 mins by HPLC electrochemical detection method in the presence of L-dopa and benserazide; assay type: functional, organism-based; conditions: dose 1.25-5 mg/kg, time 24.5 hrs
[6] = Cmax in Sprague dawley rat at 1 mg/kg, iv measured upto 24 hrs; assay type: ADME, organism-based; set-up: route intravenous, dose 1 mg/kg, time <=24; conditions: in vivo
Cytochrome P450 1A2 = biological target: T1, Cytochrome P450 1A2 (Homo sapiens, UniProt P05177); assay: Inhibition of human CYP1A2 preincubated for 10 min followed by addition of NADPH and measured after 10 min by LC-MS/MS analysis; assay type: ADME
T1 sequence (P05177 whole entry): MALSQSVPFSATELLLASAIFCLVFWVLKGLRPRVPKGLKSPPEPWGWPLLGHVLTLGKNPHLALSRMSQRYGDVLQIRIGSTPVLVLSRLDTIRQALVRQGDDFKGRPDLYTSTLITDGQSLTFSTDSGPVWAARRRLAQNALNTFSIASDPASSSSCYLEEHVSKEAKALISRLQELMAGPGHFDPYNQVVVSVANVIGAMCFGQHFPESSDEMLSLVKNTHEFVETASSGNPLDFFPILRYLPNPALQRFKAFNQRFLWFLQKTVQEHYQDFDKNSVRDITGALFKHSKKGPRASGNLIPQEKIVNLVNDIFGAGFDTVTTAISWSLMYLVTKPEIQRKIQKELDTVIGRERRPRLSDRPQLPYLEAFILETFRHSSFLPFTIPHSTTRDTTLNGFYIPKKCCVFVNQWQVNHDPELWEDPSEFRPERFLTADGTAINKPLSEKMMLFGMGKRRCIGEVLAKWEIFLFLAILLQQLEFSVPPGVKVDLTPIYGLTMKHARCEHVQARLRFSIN

[7] = Toxicity in MPTP-induced C57BL/6 mouse model of Parkinson's disease assessed as effect on locomotor activity by measuring rearing activity at 0.625 to 1.25 mg/kg, ip pretreated for 15 mins followed by MPTP challenge and measured after 5 days post MPTP challenge; assay type: organism-based; conditions: in vivo, 120 h, dose 0.625-1.25 mg/kg, time 5 day
hERG (KCNH2) = hERG (KCNH2) (Homo sapiens, UniProt Q12809); assay: Inhibition of human ERG expressed in CHO-K1 cells by Patch Clamp method; assay type: toxicity, cell-based; conditions: CHO-K1 cells expressing human ERG
[8] = Oral bioavailability in Cynomolgus monkey rat at 5 mg/kg measured upto 24 hrs; assay type: ADME, organism-based, Macaca fascicularis; conditions: in vivo
[9] = Metabolic stability in mouse liver microsome assessed as half life at 1 uM measured after 60 min in presence of NADPH by LC-MS/MS analysis; assay type: ADME; conditions: liver microsomes
Cytochrome P450 2D6 = Cytochrome P450 2D6 (Homo sapiens, UniProt P10635); assay: Inhibition of human CYP2D6 preincubated for 10 min followed by addition of NADPH and measured after 10 min by LC-MS/MS analysis; assay type: ADME
[10] = Half life in Sprague dawley rat at 5 mg/kg, po measured upto 24 hrs; assay type: ADME, organism-based; conditions: in vivo
[11] = Metabolic stability in dog liver microsome assessed as half life at 1 uM measured after 60 min in presence of NADPH by LC-MS/MS analysis; assay type: ADME, Canis lupus familiaris; conditions: liver microsomes
[12] = AUC (0-t) in Sprague dawley rat at 1 mg/kg, iv measured upto 24 hrs; assay type: ADME, organism-based; set-up: route intravenous, dose 1 mg/kg, time <=24; conditions: in vivo
[13] = AUC (0-t) in Cynomolgus monkey at 1 mg/kg, iv measured upto 24 hrs; assay type: ADME, organism-based, Macaca fascicularis; set-up: route intravenous, dose 1 mg/kg, time <=24; conditions: in vivo
[14] = Half life in Cynomolgus monkey rat at 5 mg/kg, po measured upto 24 hrs; assay type: ADME, organism-based, Macaca fascicularis; conditions: in vivo
[15] = Metabolic stability in rat liver microsome assessed as half life at 1 uM measured after 60 min in presence of NADPH by LC-MS/MS analysis; assay type: ADME; conditions: liver microsomes
Cytochrome P450 2C8 = biological target: T2, Cytochrome P450 2C8 (Homo sapiens, UniProt P10632); assay: Inhibition of human CYP2C8 preincubated for 10 min followed by addition of NADPH and measured after 45 min by LC-MS/MS analysis; assay type: ADME
T2 sequence (P10632 whole entry): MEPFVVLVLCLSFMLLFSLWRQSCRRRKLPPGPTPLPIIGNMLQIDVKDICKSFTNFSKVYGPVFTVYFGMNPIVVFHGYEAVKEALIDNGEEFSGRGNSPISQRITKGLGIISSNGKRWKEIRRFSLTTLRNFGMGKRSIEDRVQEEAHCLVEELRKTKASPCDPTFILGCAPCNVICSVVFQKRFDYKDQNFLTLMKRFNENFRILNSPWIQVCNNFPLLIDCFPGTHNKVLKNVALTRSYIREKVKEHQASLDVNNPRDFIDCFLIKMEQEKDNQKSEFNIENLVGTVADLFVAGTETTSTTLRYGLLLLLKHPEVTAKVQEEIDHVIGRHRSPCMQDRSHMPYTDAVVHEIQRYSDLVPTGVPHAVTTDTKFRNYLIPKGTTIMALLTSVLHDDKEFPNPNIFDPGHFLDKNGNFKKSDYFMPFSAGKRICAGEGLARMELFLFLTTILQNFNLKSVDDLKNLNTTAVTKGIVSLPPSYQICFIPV

Cytochrome P450 2C9 = Cytochrome P450 2C9 (Homo sapiens, UniProt P11712); assay: Inhibition of human CYP2C9 preincubated for 10 min followed by addition of NADPH and measured after 10 min by LC-MS/MS analysis; assay type: ADME
[16] = Plasma protein binding in rat assessed as unbound fraction at 1 uM measured after 5 hrs by LC-MS/MS analysis; assay type: ADME, cell-free
[17] = Volume of distribution at steady state in Cynomolgus monkey at 1 mg/kg, iv measured upto 24 hrs; assay type: ADME, organism-based, Macaca fascicularis; conditions: in vivo, read-out: Vdss
[18] = Plasma protein binding in dog assessed as unbound fraction at 1 uM measured after 5 hrs by LC-MS/MS analysis; assay type: ADME, cell-free, Canis lupus familiaris
[19] = Oral bioavailability in Sprague dawley rat at 5 mg/kg measured upto 24 hrs; assay type: ADME, organism-based; conditions: in vivo
[20] = Half life in Cynomolgus monkey at 1 mg/kg, iv measured upto 24 hrs; assay type: ADME, organism-based, Macaca fascicularis; conditions: in vivo
[21] = AUC (0-t) in Sprague dawley rat at 5 mg/kg, po measured upto 24 hrs; assay type: ADME, organism-based; set-up: route oral, dose 5 mg/kg, time <=24; conditions: in vivo
Salmonella typhimurium = assay: Genotoxicity in Salmonella typhimurium by Ames test; assay type: toxicity, organism-based; conditions: salmonella enterica subsp. enterica serovar typhimurium
[22] = Cmax in Sprague dawley rat at 5 mg/kg, po measured upto 24 hrs; assay type: ADME, organism-based; set-up: route oral, dose 5 mg/kg, time <=24; conditions: in vivo

Cytochrome P450 2C19, sequence (P33261 whole entry): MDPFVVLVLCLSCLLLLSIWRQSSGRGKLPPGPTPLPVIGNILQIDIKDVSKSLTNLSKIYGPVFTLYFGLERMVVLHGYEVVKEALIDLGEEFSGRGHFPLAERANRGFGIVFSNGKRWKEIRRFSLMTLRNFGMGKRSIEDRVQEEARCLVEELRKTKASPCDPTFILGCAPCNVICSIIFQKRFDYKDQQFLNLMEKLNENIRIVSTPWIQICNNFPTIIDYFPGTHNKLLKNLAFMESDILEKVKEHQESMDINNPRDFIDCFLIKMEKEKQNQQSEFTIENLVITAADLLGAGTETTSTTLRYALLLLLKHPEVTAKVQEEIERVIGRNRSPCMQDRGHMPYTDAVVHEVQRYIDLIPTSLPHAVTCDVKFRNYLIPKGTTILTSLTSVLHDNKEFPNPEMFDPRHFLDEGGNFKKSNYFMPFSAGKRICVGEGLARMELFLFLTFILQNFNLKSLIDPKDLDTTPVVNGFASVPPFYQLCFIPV
Cytochrome P450 2C9, sequence (P11712 whole entry): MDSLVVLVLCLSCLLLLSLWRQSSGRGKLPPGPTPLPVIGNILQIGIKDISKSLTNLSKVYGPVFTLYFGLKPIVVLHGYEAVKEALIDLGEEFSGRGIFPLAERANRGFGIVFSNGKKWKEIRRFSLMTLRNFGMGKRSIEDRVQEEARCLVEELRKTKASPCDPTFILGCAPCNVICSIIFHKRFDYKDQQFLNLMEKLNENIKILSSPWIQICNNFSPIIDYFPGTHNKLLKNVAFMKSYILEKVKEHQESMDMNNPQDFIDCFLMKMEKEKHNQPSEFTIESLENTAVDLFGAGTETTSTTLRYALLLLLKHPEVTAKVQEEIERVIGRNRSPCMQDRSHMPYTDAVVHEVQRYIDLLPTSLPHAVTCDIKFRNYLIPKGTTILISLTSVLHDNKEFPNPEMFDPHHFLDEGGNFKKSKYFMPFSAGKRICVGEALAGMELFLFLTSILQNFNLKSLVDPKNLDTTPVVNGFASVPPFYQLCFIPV
Cytochrome P450 2D6, sequence (P10635 whole entry): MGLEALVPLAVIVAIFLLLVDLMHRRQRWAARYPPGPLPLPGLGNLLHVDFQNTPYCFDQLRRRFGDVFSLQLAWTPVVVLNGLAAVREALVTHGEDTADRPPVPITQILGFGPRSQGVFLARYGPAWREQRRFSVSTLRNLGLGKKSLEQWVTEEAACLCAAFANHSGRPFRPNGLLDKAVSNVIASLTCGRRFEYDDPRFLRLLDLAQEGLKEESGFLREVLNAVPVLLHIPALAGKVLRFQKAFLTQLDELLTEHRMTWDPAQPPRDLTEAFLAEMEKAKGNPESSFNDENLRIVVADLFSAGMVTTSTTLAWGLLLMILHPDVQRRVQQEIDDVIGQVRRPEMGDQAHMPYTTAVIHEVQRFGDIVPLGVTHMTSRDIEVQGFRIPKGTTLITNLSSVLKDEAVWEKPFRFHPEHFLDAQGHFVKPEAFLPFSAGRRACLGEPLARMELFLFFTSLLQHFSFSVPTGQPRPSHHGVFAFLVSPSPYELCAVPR
hERG (KCNH2), sequence (Q12809 whole entry): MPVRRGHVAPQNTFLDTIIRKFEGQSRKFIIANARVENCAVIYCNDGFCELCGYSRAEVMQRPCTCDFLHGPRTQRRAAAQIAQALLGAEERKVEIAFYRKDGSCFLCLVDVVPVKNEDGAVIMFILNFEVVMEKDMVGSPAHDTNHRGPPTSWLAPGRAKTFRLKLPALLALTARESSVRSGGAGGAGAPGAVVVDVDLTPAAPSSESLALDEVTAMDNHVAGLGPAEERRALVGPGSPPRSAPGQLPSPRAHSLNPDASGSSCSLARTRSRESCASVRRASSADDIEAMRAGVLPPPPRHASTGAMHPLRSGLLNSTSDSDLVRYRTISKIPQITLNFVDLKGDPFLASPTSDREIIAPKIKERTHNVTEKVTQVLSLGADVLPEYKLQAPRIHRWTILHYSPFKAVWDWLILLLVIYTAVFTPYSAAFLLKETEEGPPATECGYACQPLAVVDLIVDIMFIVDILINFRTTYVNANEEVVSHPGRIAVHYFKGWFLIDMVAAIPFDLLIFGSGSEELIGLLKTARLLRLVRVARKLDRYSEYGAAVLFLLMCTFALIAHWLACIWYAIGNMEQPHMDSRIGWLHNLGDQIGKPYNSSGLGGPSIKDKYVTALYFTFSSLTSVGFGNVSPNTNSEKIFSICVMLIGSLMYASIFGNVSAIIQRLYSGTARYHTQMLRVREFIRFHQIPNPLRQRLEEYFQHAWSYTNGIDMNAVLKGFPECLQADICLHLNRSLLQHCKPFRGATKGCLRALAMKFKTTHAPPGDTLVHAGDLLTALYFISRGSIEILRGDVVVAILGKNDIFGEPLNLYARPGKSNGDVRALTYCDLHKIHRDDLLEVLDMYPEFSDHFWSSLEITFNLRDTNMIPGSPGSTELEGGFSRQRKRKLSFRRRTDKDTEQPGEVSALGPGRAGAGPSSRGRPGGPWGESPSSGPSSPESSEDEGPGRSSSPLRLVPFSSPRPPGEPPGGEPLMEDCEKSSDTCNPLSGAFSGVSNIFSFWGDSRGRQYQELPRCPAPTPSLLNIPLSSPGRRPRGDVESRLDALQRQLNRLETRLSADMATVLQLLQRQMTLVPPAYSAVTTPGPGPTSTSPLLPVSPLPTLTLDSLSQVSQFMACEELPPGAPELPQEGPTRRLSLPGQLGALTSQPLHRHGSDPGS

With `NC(=O)[C@@H]1C[C@H](F)CN1Cc1ccc(OCc2cccc(F)c2)cc1` as the molecule, how does the Cmax [1] read?
The Cmax was 924 ng/mL.

What about the Activity (Mus musculus [2]) of the same molecule?
The Activity was “Active”.

And the Papp B→A at 10 µM [3]?
The Papp B→A at 10 µM was 22.8 ×10⁻⁶ cm/s.

And the Vd [4]?
Its Vd is 1.37 L/kg.

And the IC50 (Cytochrome P450 2C19)?
Its IC50 is over 29 µM.

And the Activity (Mus musculus [5])?
Its Activity is “Active”.

And the Cmax [6]?
The Cmax was 690 ng/mL.

What about the IC50 (Cytochrome P450 1A2) of the same molecule?
The IC50 was over 29 µM.

And the Activity [7]?
Its Activity is “Non-Toxic”.

And the IC50 (hERG (KCNH2))?
The IC50 was over 30 µM.

And the bioavailability [8]?
The bioavailability was 107%.

And the half-life at 1 µM [9]?
Its half-life at 1 µM is 9.37 min.

What about the IC50 (Cytochrome P450 2D6) of the same molecule?
Its IC50 is over 29 µM.

And the half-life [10]?
The half-life was 34.2 min.

What about the half-life at 1 µM [11] of the same molecule?
The half-life at 1 µM was 51.1 min.

What about the AUC(0-t) at 24 h [12] of the same molecule?
Its AUC(0-t) at 24 h is 505 ng·h/mL.

And the AUC(0-t) at 24 h [13]?
The AUC(0-t) at 24 h was 2120 ng·h/mL.

And the half-life [14]?
The half-life was 168 min.

What about the half-life at 1 µM [15] of the same molecule?
Its half-life at 1 µM is 11.5 min.

What about the IC50 (Cytochrome P450 2C8) of the same molecule?
The IC50 was over 29 µM.

What about the IC50 (Cytochrome P450 2C9) of the same molecule?
The IC50 was over 29 µM.

And the fraction unbound at 5 h, 1 µM [16]?
The fraction unbound at 5 h, 1 µM was 0.0504.

And the Vd [17]?
The Vd was 1.06 L/kg.

And the fraction unbound at 5 h, 1 µM [18]?
Its fraction unbound at 5 h, 1 µM is 0.0429.

What about the bioavailability [19] of the same molecule?
Its bioavailability is 55.2%.

And the half-life [20]?
The half-life was 106 min.

And the AUC(0-t) at 24 h [21]?
The AUC(0-t) at 24 h was 1400 ng·h/mL.

What about the Activity (Salmonella typhimurium) of the same molecule?
The Activity was “Non-Toxic”.

And the Cmax [22]?
The Cmax was 1000 ng/mL.
